Source: patent US20260001844A1, “COMPOUNDS AND METHODS FOR THE TREATMENT AND PREVENTION OF HIV” (priority 2022, published 2026)
Read-outs that look alike come from different tables or passages of the source.

What was measured:
[1] = test system: HIV-1AD8 infected primary CD4+ T cells; experiment: ADCC FACS-based assay with HIV+ plasma, HIV-1AD8 infected cells; assay type: cell-based, human; details: 50 μM compound; plasma 1:1000
[2] = test system: HIV-1CH58TF infected primary CD4+ T cells; experiment: ADCC FACS-based assay with HIV+ plasma, HIV-1CH58TF infected cells; assay type: cell-based, human; details: for Susceptibility of HIV-1CH58TF infected cells to ADCC mediated by HIV+ plasma (in words): 50 μM compound, plasma 1:1000; for % ADCC (CH58): Table 1, approximate values, HIV+ plasma 1/1,000, compound 50 μM
[3] = test system: VSV-G pseudovirus; experiment: microbe, parasite or virus in culture; assay type: cell-based; details: read-out: IC50 VSV-G pseudovirus
[4] = test system: HIV-1AD8 infected primary CD4+ T cells; experiment: Cell-surface staining with HIV+ plasma, HIV-1AD8 infected cells; details: 50 μM compound; plasma 1:1000
[5] = test system: HIV-1JRFL infected primary CD4+ T cells; experiment: Anti-CoRBS 17b mAb binding to infected cells (flow cytometry), HIV-1JRFL; assay type: cell-based, human; details: 50 μM compound; p24+ cells
Description: (§1) FIG. 4. Anti-CoRBS Ab binding. Anti-CoRBS Ab-17b binding to (A) HIV-1CH58TF, (B) HIV-1JRFL (C) or HIV-1AD8 infected primary CD4+ T cells was done in the presence of 50 μM of the indicated CD4mcs or the same volume of vehicle (DMSO). The median fluorescence intensity (MFI) of 17b binding is reported for the productively-infected cell (p24+) population. Data shown are the mean±SD of at least three independent experiments. Statistical significance was evaluated using an un-paired t test (*, p<0.05; **, p<0.01; ***, p<0.001; ****, p<0.0001; ns, not significant).
The ability of the compounds to expose the co-receptor binding site (CoRBS) were tested by measuring binding of the anti-CoRBS 17b mAb to infected cells. Briefly, primary CD4+ T cells were infected with HIV-1CH58TF, HIV-1JRFL or HIV-1AD8. Two days later, infected cells were co-incubated with 50 μM (+)-BNM-III-170, (S)-MCG-IV-210, TFH-070-A6, TFH-I-116-D1, ZXC-I-090, ZXC-I-092, DL-I-101 (ZXC-I-257), and DL-I-102 (ZXC-I-258) or the same volume of DMSO, and the 17b interaction was measured by flow cytometry after intracellular anti-p24 to identify the infected cell population. […] Defined by the sensitivity to anti-body-mediated neutralization (tier-1, 2 and 3), Tier-2 viruses (HIV-1JRFL and HIV-1AD8) are representative of biologically relevant circulating HIV-1 strains which are moderately neutralized by neutralizing antibodies. Weak neutralizing antibodies, or first generation CD4mc, prevent the infection of viruses from tier-1 but not those from tier-2 or tier-3. […] A similar phenotype was observed when using HIV-1AD8 infected cells (FIG. 4C).
The anti-CoRBS 17b mAb was used alone or in combination with different com-pounds for cell-surface staining. Plasma from different HIV-infected donors were collected, heat-inactivated and conserved. Alexa Fluor 647 conjugated Goat anti-human antibodies (Invitrogen, Waltham, MA, USA) were used as secondary Abs.
Cell-surface staining was performed. Primary CD4 T cells were isolated from healthy donors and infected with HIV-1CH58TF, HIV-1JRFL or HIV-1AD8. Binding of HIV-1-infected cells by plasma (1:1000 dilution) or 17b mAb (5 μg/mL) in the presence or absence of 50 μM compounds was performed 48 h after infection. Cells were then incubated at 37° C. for 1 h followed by adding anti-human Alexa Fluor-647 (Invitrogen) secondary Abs for 20 min. Cells were then stained intracellularly for HIV-1 p24, using the Cytofix/Cytoperm Fixation/Permeabilization Kit (BD Biosciences, Mississauga, ON, Canada) and the fluorescent anti-p24 mAb (PE-conjugated anti-p24, clone KC57; Beckman Coulter/Immunotech). The percentage of infected cells (p24+ cells) was determined by gating the live cell population on the basis of the Aqua-Vivid viability dye staining. Samples were analyzed on an LSRII cytometer (BD Biosciences), and data analysis was performed using FlowJo vX.0.7 (Tree Star, Ashland, OR, USA).

[6] = test system: HIV-1JRFL; experiment: Viral neutralization in TZM-bl cells (luciferase), HIV-1JRFL; assay type: cell-based
[7] = test system: HIV-1AD8; experiment: Viral neutralization in TZM-bl cells (luciferase), HIV-1AD8; assay type: cell-based; details: read-out: IC50 HIV-1AD8
[8] = test system: HIV-1JRFL infected primary CD4+ T cells; experiment: Cell-surface staining with HIV+ plasma, HIV-1JRFL infected cells; assay type: cell-based, human; details: 50 μM compound; plasma 1:1000
[9] = test system: HIV-1JRFL infected primary CD4+ T cells; experiment: ADCC FACS-based assay with HIV+ plasma, HIV-1JRFL infected cells; assay type: cell-based, human; details: for % ADCC (JR-FL): Table 1, approximate values
[10] = test system: HIV-1CH58TF; experiment: Viral neutralization in TZM-bl cells (luciferase), HIV-1CH58TF; assay type: cell-based
[11] = test system: HIV-1CH58TF infected primary CD4+ T cells; experiment: Cell-surface staining with HIV+ plasma, HIV-1CH58TF infected cells; assay type: cell-based, human; details: 50 μM compound; plasma 1:1000
[12] = test system: HIV-1CH58TF infected primary CD4+ T cells; experiment: Anti-CoRBS 17b mAb binding to infected cells (flow cytometry), HIV-1CH58TF; assay type: cell-based, human; details: 50 μM compound; p24+ cells
Description: as §1
The ability of the compounds to expose the co-receptor binding site (CoRBS) were tested by measuring binding of the anti-CoRBS 17b mAb to infected cells. […] Two days later, infected cells were co-incubated with 50 μM (+)-BNM-III-170, (S)-MCG-IV-210, TFH-070-A6, TFH-I-116-D1, ZXC-I-090, ZXC-I-092, DL-I-101 (ZXC-I-257), and DL-I-102 (ZXC-I-258) or the same volume of DMSO, and the 17b interaction was measured by flow cytometry after intracellular anti-p24 to identify the infected cell population. […]
Cell-surface staining was performed. […] The percentage of infected cells (p24+ cells) was determined by gating the live cell population on the basis of the Aqua-Vivid viability dye staining. Samples were analyzed on an LSRII cytometer (BD Biosciences), and data analysis was performed using FlowJo vX.0.7 (Tree Star, Ashland, OR, USA).

[13] = Human immunodeficiency virus 1, TZM-bl, read-out: IC50 (JR-FL)
[14] = Human immunodeficiency virus 1, TZM-bl
[15] = Human immunodeficiency virus 1, TZM-bl, read-out: IC50 (CH58)
[16] = Human immunodeficiency virus 1, TZM-bl, read-out: IC50 HIV-1JRFL
[17] = Table 2, average ± SD of at least three independent experiments, TZM-bl cells, read-out: IC50 HIV-1CH58TF

Row | Structure (SMILES) | Susceptibility of HIV-1CH58TF infected cells to ADCC mediated by HIV+ plasma (in words) [2] | IC50 ([3]; Pseudovirus, TZM-bl) [µM] | HIV+ plasma binding to HIV-1AD8 infected cells [4] | Exposure of the co-receptor binding site (17b mAb binding), HIV-1JRFL infected cells [5] | IC50 [6, 13] [µM] | % ADCC (CH58) [2] [%] | % ADCC (JR-FL) [9] [%] | IC50 [10, 15] [nM] | IC50 [6, 16] [µM] | further results
1 | NCC(=O)N1CCN(C(=O)N2C[C@H](CO)C[C@H](C(=O)Nc3ccc(Cl)c(F)c3)C2)CC1 (racemic) [DL-I-101, (3S,5R)-N-(4-chloro-3-fluorophenyl)-1-(4-glycylpiperazine-1-carbonyl)-5-(hydroxymethyl)piperidine-3-carboxamide] | also the case | > 100 | did | successfully exposed the CoRBS |  |  |  |  |  | ADCC against HIV-1AD8 infected cells (in words) [1]: translated into ADCC
2 | O=C(O)CN1CCN(C(=O)N2C[C@H](CO)C[C@H](C(=O)Nc3ccc(Cl)c(F)c3)C2)CC1 (racemic) [DL-I-102, 2-(4-((3S,5R)-3-((4-chloro-3-fluorophenyl)carbamoyl)-5-(hydroxymethyl)piperidine-1-carbonyl)piperazin-1-yl)acetic acid] | also the case | > 100 |  | successfully exposed the CoRBS |  |  |  |  |  | 
3 | C[C@@H]1CN(C(=O)N2CCC[C@H](C(=O)Nc3ccc(Cl)c(F)c3)C2)C[C@H](C)N1C (stereo in doubt) [TFH-I-116-D1] | also the case | > 100 | did | successfully exposed the CoRBS | 20 | 5 | 3 | < 1000 |  | IC50 ([6]; Human immunodeficiency virus 1, TZM-bl, read-out: IC50, neutralization of HIV-1JRFL (text, unit printed M)): 43.8 µM; ADCC against HIV-1AD8 infected cells (in words) [1]: translated into ADCC; IC50 [7, 14]: 4.8 ± 1.7 µM; Recognition of HIV-1JRFL infected cells by antibodies from PLWH (HIV+ plasma) [8]: recognized infected cells; ADCC against HIV-1JRFL infected cells compared to (S)-MCG-IV-210 (in words) ([9]; 50 μM compound, plasma 1:1000): not translated into enhanced ADCC; IC50 ([10]; Human immunodeficiency virus 1, TZM-bl, read-out: IC50 HIV-1CH58TF): 65 ± 10 nM
4 | CN1CCN(C(=O)N2C[C@H](CN)C[C@H](C(=O)Nc3ccc(Cl)c(F)c3)C2)CC1 (stereo in doubt) [ZXC-I-090] | also the case | > 100 |  |  | 18 | ~3 | ~2 | ~50000 |  | 
5 | C[C@@H]1CN(C(=O)N2C[C@H](CN)C[C@H](C(=O)Nc3ccc(Cl)c(F)c3)C2)C[C@H](C)N1C (stereo in doubt) [ZXC-I-092] | also the case | > 100 |  | successfully exposed the CoRBS | 28 | ~3 | ~2 | ~50000 | 54.2 ± 22.8 | IC50 [10, 17]: 750 ± 120 nM
6 | CNCc1ccc2c(c1)C[C@H](CN=C(N)N)[C@H]2NC(=O)C(=O)Nc1ccc(Cl)c(F)c1.O=C(O)C(F)(F)F.O=C(O)C(F)(F)F [BNM-III-170, reference compound] | enhanced |  |  |  |  |  |  |  |  | Recognition of HIV-1CH58TF infected cells by HIV+ plasma [11]: enhanced the recognition; IC50 ([6]; TZM-bl neutralization assay, read-out: IC50, neutralization of HIV-1JRFL): 13.5 µM; IC50 ([7]; Table 2, average ± SD of at least three independent experiments, TZM-bl cells): 3.75 ± 1.3 µM; IC50 [3]: > 100 µM; IC50 [10, 17]: 33 ± 10 nM
7 | NCCNC(=O)N1CCC[C@H](C(=O)Nc2ccc(Cl)c(F)c2)C1 [MCG-IV-210, reference compound] | enhanced | > 100 | did not promote HIV+ plasma binding |  |  |  |  |  | > 100 | Recognition of HIV-1CH58TF infected cells by HIV+ plasma [11]: enhanced the recognition; Inhibition of viral infection by HIV-1JRFL (in words) ([6]; TZM-bl neutralization assay): unable to inhibit viral infection; Exposure of the co-receptor binding site (17b mAb binding), HIV-1CH58 infected cells [12]: exposed the CoRBS; IC50 [7, 14]: > 100 µM
8 | CN1CCN(C(=O)N2CCC[C@H](C(=O)Nc3ccc(Cl)c(F)c3)C2)CC1 [TFH-I-070-A6, (S)-4-(3-((4-chloro-3-fluorophenyl)carbamoyl)piperidine-1-carbonyl)-1-methylpiperazin-1-ium, 2,2,2-trifluoro-acetate] | also the case | > 100 | did | successfully exposed the CoRBS | 80 | 5 | 3 | 30000 | 67.2 ± 30 | 
